Experimental data reported in patent EP4680608B1, “2,6-DIHYDRO-7H-PYRAZOLO[3,4-C]PYRIDIN-7-ONE DERIVATIVES AS ANTI-MALARIAL AGENTS” (MMV Medicines for Malaria Venture, priority 2024, dated 2025).

Columns and labels:
P. vivax DHODH = P. vivax DHODH (Plasmodium vivax, UniProt A5K1N1); test: DHODH inhibition, steady-state DCIP assay (PvDHODH); type: biochemical; conditions: recombinant PvDHODH, DCIP method, 25°C, 5 nM enzyme; read-out: P. vivax DHODH (IC50)
From the text: (§1) DOI: 10.1074/jbc.M206854200).
(§2) Proteins were expressed and purified on a Pharmacia FPLC using HisTrap HP column chromatography followed by gel filtration chromatography on a Pharmacia HiLoad 16/600 Superdex 200 column, and protein concentration determined based on OD280 using the previously described extinction coefficients (Kokkonda et al., 2020, J Med Chem, 63 (9), 4929-4956. DOI: 10.1021/acs.jmedchem.0c00311). Purified proteins were >95% pure based on SDS-PAGE analysis.
(§3) DHODH activity was monitored in a steady-state assay using the 2,6-dichloroindophenol (DCIP) method at 25°C in assay buffer (100 mM HEPES, pH 8.0, 150 mM NaCl, 1% glycerol, 0.1% Triton X-100 reduced) plus substrates 20 µM CoQD, 200 µM DHO, 120 µM DCIP, and 5 nM enzyme as previously described (Malmquist et al, 2008, Biochemistry, 47 (8), 2466-2475. DOI: 10.1021/bi702218c).
(§4) Compound stocks were prepared at 10-100 mM in DMSO, and diluted working stocks in DMSO were generated as appropriate. Compounds were plated from DMSO stocks in 96 well plate format using a Tecan D300e digital dispenser to generate a 3-fold dilution series over a concentration range of 0.0003 -100 µM (or 30 µM), yielding a final DMSO concentration of 1% in the assay. The top concentration used in the dose response was determined by the initial DMSO stock concentrations:100 µM for 100 mM stocks, and 30 µM for 10 mM stocks. Triplicate rate data were collected at each inhibitor concentration. Inhibitory IC50 values were determined by fitting the data to log (inhibitor) vs response equation Y = bottom + (top - bottom)/(1 + 10A ((X - Log IC50))) in GraphPad Prism. DSM265 ^2 was plated as an assay control in all studies.

P. falciparum DHODH = biological target: T1, P. falciparum DHODH (Plasmodium falciparum, UniProt Q08210); test: DHODH inhibition, steady-state DCIP assay (PfDHODH); type: biochemical; conditions: recombinant PfDHODH, DCIP method, 25°C, 5 nM enzyme
T1 construct: His6 (N); made in house; host or cells: E. coli BL21-DE3 (phage-resistant)
T1 sequence (Q08210 158-569): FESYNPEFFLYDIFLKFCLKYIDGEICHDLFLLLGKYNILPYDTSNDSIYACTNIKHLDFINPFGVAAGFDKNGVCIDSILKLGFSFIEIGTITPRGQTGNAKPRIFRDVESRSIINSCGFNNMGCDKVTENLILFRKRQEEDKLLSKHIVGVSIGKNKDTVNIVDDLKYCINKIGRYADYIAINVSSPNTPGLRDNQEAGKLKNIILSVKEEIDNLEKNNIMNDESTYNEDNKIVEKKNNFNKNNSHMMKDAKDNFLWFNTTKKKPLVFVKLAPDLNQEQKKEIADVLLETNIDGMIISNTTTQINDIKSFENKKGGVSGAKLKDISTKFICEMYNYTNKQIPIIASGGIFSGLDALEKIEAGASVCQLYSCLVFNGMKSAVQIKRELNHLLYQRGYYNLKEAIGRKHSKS
Procedure: as §4, with “Prism.” for “Prism. DSM265 ^2 was plated as an assay control in all studies.”

Human DHODH = biological target: T2, Human DHODH (Homo sapiens, UniProt Q02127); test: DHODH inhibition, steady-state DCIP assay (human DHODH); type: biochemical; conditions: recombinant HsDHODH, DCIP method, 25°C, 5 nM enzyme; top concentration 100 µM or 30 µM
T2 construct: C-terminal His6-tagged HsDHODH residues 29-395 in pET-22b (start ^29MATGDE); His6 (C); made in house; host or cells: E. coli BL21-DE3 (phage-resistant)
T2 sequence (Q02127 29-395): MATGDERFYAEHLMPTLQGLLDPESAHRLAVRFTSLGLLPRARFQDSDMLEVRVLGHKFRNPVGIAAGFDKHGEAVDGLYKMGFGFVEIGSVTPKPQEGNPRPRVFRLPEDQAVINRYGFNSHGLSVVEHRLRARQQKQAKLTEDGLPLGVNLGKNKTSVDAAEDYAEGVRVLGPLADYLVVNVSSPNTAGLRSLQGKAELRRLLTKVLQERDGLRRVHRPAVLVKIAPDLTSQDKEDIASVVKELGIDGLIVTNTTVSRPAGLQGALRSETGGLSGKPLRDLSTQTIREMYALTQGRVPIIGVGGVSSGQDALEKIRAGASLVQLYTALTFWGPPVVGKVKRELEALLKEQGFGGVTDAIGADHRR
From the text: as §1, §2, §3, §4

P. falciparum 3D7 = test: Asexual blood-stage growth inhibition assay, SYBR green method; type: cell-based; conditions: ring-stage 3D7 parasites
Procedure: Asexual blood-stage EC50 assays. […] Compound stocks prepared in DMSO were plated using a Tecan D300e automated low volume liquid handler. Ring-stage 3D7 or Dd2 parasites (60 µL cells) (2% hematocrit, 0.5% parasitemia, final DMSO concentration 0.5%) were added to plates, incubated with compounds over a range of concentrations in technical triplicate for 72 h at 37 °C, 5% CO2, and then frozen (-80°C) overnight before analysis. […] Data were analyzed by non-linear regression using GraphPad Prism to determine the EC50 by fitting to the built-in equation (log(inhibitor) vs response-variable slope with four parameters).

[1] = Plasmodium falciparum, 3D7, 72 h

Chain of P. vivax DHODH (A5K1N1 entry or part of it): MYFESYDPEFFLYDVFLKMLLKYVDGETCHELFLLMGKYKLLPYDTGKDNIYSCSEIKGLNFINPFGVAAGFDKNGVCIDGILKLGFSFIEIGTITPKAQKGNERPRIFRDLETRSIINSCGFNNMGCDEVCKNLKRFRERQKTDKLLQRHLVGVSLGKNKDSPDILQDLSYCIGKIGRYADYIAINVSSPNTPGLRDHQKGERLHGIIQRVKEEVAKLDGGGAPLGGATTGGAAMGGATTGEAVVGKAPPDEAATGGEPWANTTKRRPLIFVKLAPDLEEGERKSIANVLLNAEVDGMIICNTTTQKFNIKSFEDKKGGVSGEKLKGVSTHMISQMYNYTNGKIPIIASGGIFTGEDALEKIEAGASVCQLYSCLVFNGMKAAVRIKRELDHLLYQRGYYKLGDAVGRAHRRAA

Compound | IC50 (P. vivax DHODH) [nM] | IC50 (P. falciparum DHODH) [nM] | IC50 (Human DHODH) [µM] | EC50 (P. falciparum 3D7; [1]) [nM] | EC50 (P. falciparum 3D7; 72 h) [nM]
CC[C@@](N)(c1ccc(C(F)(F)F)c(F)c1)c1c2ccn(C3CC3)c(=O)c2nn1C (single isomer, unassigned) [4-5] | 7 | 16 | 1.3 | 10 | –
CC[C@@](N)(c1ccc(C(F)(F)F)c(Cl)c1)c1c2ccn(C3CC3)c(=O)c2nn1C (single isomer, unassigned) [4-8] | 6.2 | 9.3 | 1 | 1.1 | –
CC[C@@](N)(c1cnc(C(F)(F)F)c(Cl)c1)c1c2ccn(C3CC3)c(=O)c2nn1C (single isomer, unassigned) [4-11] | 41 | 42 | 13 | 2.6 | –
CCn1cc(C)c2c([C@H](N)c3ccc(C(F)(F)F)c(C#N)c3)n(C)nc2c1=O (single isomer, unassigned) [4-14] | 39 | 83 | > 100 | 16 | –
Cn1nc2c(=O)n(C3CC3)ncc2c1[C@](N)(c1ccc(C(F)(F)F)c(Cl)c1)C1CC1 (single isomer, unassigned) [4-16] | 7.8 | 17 | 16 | 7.4 | –
Cn1nc2c(=O)n(C3CC3)cnc2c1[C@](C)(N)c1ccc(C(F)(F)F)c(Cl)c1 (single isomer, unassigned) [4-20] | 8.3 | 8.2 | 20 | 0.44 | –
CC[C@@](N)(c1ccc(F)c(Cl)c1)c1c2ncn(C3CC3)c(=O)c2nn1C (single isomer, unassigned) [4-22] | 20 | 23 | 4.6 | 4.1 | –
Cn1nc2c(=O)n(C3CC3)cnc2c1[C@](N)(c1ccc(C(F)(F)F)c(Cl)c1)C1CC1 (single isomer, unassigned) [4-24] | 8.7 | 11 | 3.2 | 2.1 | –
CC[C@@](N)(c1ccc(C(F)(F)F)c(Cl)c1)c1c2ncn(C3CC3)c(=O)c2nn1C (single isomer, unassigned) [4-26] | 5.2 | 9.5 | 1.4 | 0.91 | –
CC[C@@](N)(c1cnc(C(F)(F)F)c(Cl)c1)c1c2ncn(C3CC3)c(=O)c2nn1C (single isomer, unassigned) [4-27] | 40 | 47 | > 30 | 6.5 | –
Cn1nc2c(=O)n(C3CC3)cnc2c1[C@](O)(c1cnc(C(F)(F)F)c(Cl)c1)C(F)(F)F (single isomer, unassigned) [5-3] | 28 | 18 | > 30 | 1.7 | –
Cn1nc2c(=O)n(C3CC3)ccc2c1[C@](O)(c1ccc(F)c(Cl)c1)C(F)(F)F (single isomer, unassigned) [5-9] | 9.8 | 14 | 9.2 | 0.52 | –
Cn1nc2c(=O)n(C3CC3)ncc2c1[C@](O)(c1ccc(C(F)(F)F)c(Cl)c1)C(F)(F)F (single isomer, unassigned) [5-15] | 9.3 | 8.6 | 24 | 0.29 | –
Cn1nc2c(=O)n(C3CC3)cnc2c1[C@](O)(c1ccc(C(F)(F)F)c(Cl)c1)C(F)(F)F (single isomer, unassigned) [5-17] | 6.1 | 4.6 | 5.6 | 0.046 | –
Cn1nc2c(=O)n(C3CC3)cnc2c1[C@](O)(c1ccc(C(F)(F)F)c(C#N)c1)C(F)(F)F (single isomer, unassigned) [5-19] | 20 | 12 | 17 | – | 0.35
Cn1nc2c(=O)n(C3CC3)cnc2c1[C@](O)(c1ccc(C(F)(F)F)nc1)C(F)(F)F (single isomer, unassigned) [5-21] | 29 | 31 | > 30 | 2.1 | –
Cn1nc2c(=O)n(C3CC3)cnc2c1[C@](O)(c1cnc(C(F)(F)F)c(Cl)c1)C(F)F (single isomer, unassigned) [5-22] | 7.7 | 11 | 22 | 6.1 | –
CC(C)n1cnc2c([C@](O)(c3ccc(C(F)(F)F)c(Cl)c3)C(F)(F)F)n(C)nc2c1=O (single isomer, unassigned) [5-32] | 8.5 | 5 | 14 | 0.25 | –
Cn1nc2c(=O)n(C3CC3)cnc2c1[C@](N)(c1ccc(C(F)(F)F)c(C#N)c1)C(F)(F)F (single isomer, unassigned) [5-40] | 22 | 18 | > 30 | 3.1 | –
Cn1nc2c(=O)n(C3CC3)ccc2c1[C@](N)(c1ccc(C(F)(F)F)c(C#N)c1)C(F)(F)F (single isomer, unassigned) [5-45] | 8.5 | 8.2 | 30 | 0.85 | –
Cn1nc2c(=O)n(C3CC3)ccc2c1[C@](N)(c1ccc(C(F)(F)F)c(Cl)c1)C(F)(F)F (single isomer, unassigned) [5-49] | 4.2 | 3.9 | 9 | 0.64 | –
Cn1nc2c(=O)n(C3CC3)cnc2c1[C@](N)(c1ccc(C(F)(F)F)c(Cl)c1)C(F)(F)F (single isomer, unassigned) [5-51] | 4 | 4.3 | 30 | 0.71 | –
Cn1nc2c(=O)n(C3CC3)cnc2c1[C@](O)(c1cnc(C(F)(F)F)c(C#N)c1)C(F)(F)F (single isomer, unassigned) [5-52] | 46 | 62 | > 30 | 11 | –
Cn1nc2c(=O)n(C3CC3)cnc2c1[C@](O)(c1ccc(C(F)F)c(C#N)c1)C(F)(F)F (single isomer, unassigned) [5-54] | 3.5 | 44 | > 30 | 3 | –
CCC(O)(c1cnc(C(F)(F)F)c(Cl)c1)c1c2cc(C)n(C3CC3)c(=O)c2nn1C (centres unmarked) [1-7, 3-(1-(5-chloro-6-(trifluoromethyl)pyridin-3-yl)-1-hydroxypropyl)-6-cyclopropyl-2,5-dimethyl-2,6-dihydro-7H-pyrazolo[3,4-c]pyridin-7-one] | 26 | 60 | 14 | 6.5 | –
Cn1nc2c(=O)n(CC(F)(F)F)cnc2c1[C@](O)(c1ccc(C(F)(F)F)c(Cl)c1)C(F)(F)F [5-26, (R)-3-(1-(3-chloro-4-(trifluoromethyl)phenyl)-2,2,2-trifluoro-1-hydroxyethyl)-2-methyl-6-(2,2,2-trifluoroethyl)-2,6-dihydro-7H-pyrazolo[4,3-d]pyrimidin-7-one] | 25 | 17 | > 30 | 0.39 | –
